# In patent US20080113955A1, “TREATMENT OF INFANT HYPERBIL[…] LOW DOSAGES OF STANNSOPORFIN” (priority 2006, published 2008):
# Columns and labels:
# [1] = system: infant hyperbilirubinemia; assay: Low-dose administration of stannsoporfin in infants with hyperbilirubinemia (all receiving phototherapy): serum bilirubin and need for exchange transfusion; assay type: in vivo, human; conditions: for # transfused pts (babies total received exchange transfusions): intramuscular, before or after treatment
# Description: (§1) Low-dose administration of stannsoporfin was tested in a group of infants in Hanoi, Vietnam and Michigan, United States. The known and unknown risks of the proposed study intervention and the potential for direct and indirect benefit were discussed with each subject's parents or guardians. Written informed consent was obtained from a parent or guardian of each subject before enrollment in the study. The study protocol was conducted under the guidelines of current Good Clinical Practice as promulgated by the United States Food and Drug Administration and international regulatory bodies. The study was reviewed and approved by the Institutional Review Board of the William Beaumont Hospital, Royal Oak, Mich., and the Vietnamese Ministry of Health and the Ethics Review Board of the National Hospital for Pediatrics of Hanoi.
# All infants received phototherapy to treat hyperbilirubinemia; thus, the group designated as “placebo” were treated with phototherapy, as were the other groups. The placebo group had 18 babies total. […] The 0.75 mg/kg stannsoporfin group had 19 babies total. […] The 1.5 mg/kg stannsoporfin group had 18 babies total. […] Treatment refers to either placebo injection or stannsoporfin injection; as previously indicated, all babies received phototherapy. The placebo used was normal physiological saline. Stannsoporfin was administered via intramuscular injection in sodium phosphate buffer at a concentration of 20 mg/ml. A vial containing 1.5 ml was used, where a dose based on birthweight of the infant and whether a 0.75 mg/kg or 1.5 mg/kg dose was withdrawn. (For example, a 5 kg birthweight baby treated at a dose of 1.5 mg/kg would receive 7.5 mg of stannsoporfin; thus, a volume of 0.375 ml from the 20 mg/ml solution would be used to provide this dose.) In the majority of cases, the infants were between 4 and 7 days of age at the time of either stannsoporfin administration or exchange transfusion. The results are shown in FIG. 1 and FIG. 2; infants receiving stannsoporfin injections who required exchange transfusions before or after treatment are not included in the data presented in FIG. 1 for any group, while babies in the stannsoporfin groups who required exchange transfusion are excluded from FIG. 2 and only babies in the placebo group that did receive exchange transfusion are included in FIG. 2.
# [2] = Side effects / adverse events in the low-dose stannsoporfin infant study; assay type: in vivo, human
# Description: as §1
# All infants received phototherapy to treat hyperbilirubinemia; thus, the group designated as “placebo” were treated with phototherapy, as were the other groups. The placebo group had 18 babies total. […] The 0.75 mg/kg stannsoporfin group had 19 babies total. […] The 1.5 mg/kg stannsoporfin group had 18 babies total. […] Treatment refers to either placebo injection or stannsoporfin injection; as previously indicated, all babies received phototherapy. The placebo used was normal physiological saline. Stannsoporfin was administered via intramuscular injection in sodium phosphate buffer at a concentration of 20 mg/ml. A vial containing 1.5 ml was used, where a dose based on birthweight of the infant and whether a 0.75 mg/kg or 1.5 mg/kg dose was withdrawn. (For example, a 5 kg birthweight baby treated at a dose of 1.5 mg/kg would receive 7.5 mg of stannsoporfin; thus, a volume of 0.375 ml from the 20 mg/ml solution would be used to provide this dose.) In the majority of cases, the infants were between 4 and 7 days of age at the time of either stannsoporfin administration or exchange transfusion. […]
# jaundiced infants = conditions: single dose of 6 umol/kg birthweight (4.5 mg/kg birthweight); cited from earlier work
# [3] = 0.75 mg/kg group, 19 babies total
# [4] = 1.5 mg/kg group, 18 babies total
substance,measurement,setting,value
tin (IV) mesoporphyrin IX dichloride [stannsoporfin],# transfused pts (babies total received exchange transfusions),"[1]; 0.75 mg/kg birthweight, N = 19, plus phototherapy",3
same,babies who did not receive an exchange transfusion,[1]; [3],16
same,babies who received an exchange transfusion after treatment,[1]; [3],1
same,% requiring transfusions,"[1]; 0.75 mg/kg, N = 19",16%
same,# transfused pts (babies total received exchange transfusions),"[1]; 1.5 mg/kg birthweight, N = 18, plus phototherapy",2
same,babies who did not receive exchange transfusion,[1]; [4],16
same,babies who received an exchange transfusion after treatment,[1]; [4],2
same,% requiring transfusions,"[1]; 1.5 mg/kg, N = 18",11%
same,"significance value P versus placebo, serum bilirubin","[1]; 1.5 mg/kg, at 24 hours, FIG. 1",< 0.05
same,"significance value P versus placebo, serum bilirubin","[1]; 1.5 mg/kg, at 48 hours, FIG. 1",< 0.001
same,decrease in serum bilirubin compared with the exchange transfusion (placebo injection) group,"[1]; 1.5 mg/kg, FIG. 2",greater than that for the exchange transfusion group at 3 of the 4 post-treatment data points
same,reduction of serum bilirubin versus placebo (phototherapy only),"[1]; both doses, 0.75 mg/kg and 1.5 mg/kg, babies who required exchange transfusions excluded, FIG. 1",greater reduction of serum bilirubin than the placebo group
same,percentage reduction in starting bilirubin levels,"[1]; both stannsoporfin groups, 0.75 mg/kg and 1.5 mg/kg, babies without exchange transfusion, FIG. 2",substantial decrease in serum bilirubin
same,need for exchange transfusion,[1]; low-dose stannsoporfin (0.75 and 1.5 mg/kg) versus control,significantly decreased the need for exchange transfusion
same,adverse events considered probably or definitely related to the study treatment,[2]; all treatment groups,None
same,infants who experienced at least one adverse event,[2]; each treatment group,Greater than 60%
same,"incidence, severity, seriousness, and causality of adverse events, differences among the three treatment groups","[2]; placebo, 0.75 mg/kg and 1.5 mg/kg groups",no statistically significant differences
same,need for phototherapy in jaundiced infants,jaundiced infants,could avoid the need for phototherapy
